From patent US10752900B2, “Oligonucleotides for modulating gene expression and uses thereof” (BIOGENERA S.P.A., priority 2012, dated 2020)

Key:
[1] = tested on: SKNBE2c; test: Cellular proliferation assay (ATP-Lite), SKNBE2c cells; assay type: cell-based, human; details: Table 6
Experimental: (§1) For the purpose of assessing the gene modulation ability of the oligonucleotides of the present invention, the effect of their administration on cell viability was determined. For this purpose 5×10^3 cells per well were seeded into 96-well cell culture plates (experiments conducted in triplicate) with 100 μl of OPTI-MEM (GIBCO BRL) medium containing 4% FBS and 2 mM of L-glutammine. The PNA oligonucleotides were administered at different concentrations (1 μM-2.5 μM-5 μM-10 μM) in order to observe a dose-effect relationship. The viability of the treated cells was determined at 48, 72, 96 and 168 hours after treatment. Cell viability was assessed by means of an ATP-Lite assay (Luminescence ATP Detection Assay System, PerkinElmer) and is reported as the ratio between the average signal of the treated wells compared to the average value of the wells of untreated control cells. The cells were processed following the instructions provided with the kit. The assays were performed on the same cell lines used to determine the levels of the MYCN gene messenger and listed in the paragraph: Treatments with Oligonucleotides-QT-PCR. The PNAs having SEQ ID NO: 1-12 were also tested on different cell lines which overexpress MYCN (Kelly, SKNBE2c, RH30, […] 1 and H69). The results are shown in Table 6 and confirm the selectivity and specificity of the inhibition effect of the PNAs on the product of protein translation of the MYCN gene.

[2] = tested on: WERI-Rb1; test: Cellular proliferation assay (ATP-Lite), WERI-Rb1 cells; assay type: cell-based; details: Table 6
Experimental: as §1

[3] = tested on: Kelly cells; test: Cellular proliferation assay (ATP-Lite), Kelly cells; assay type: cell-based, human; details: for Cell Prolif (%) 1 μM 72 h: PNA 1 μM; for Cell Prolif. (%) 5 μM 72 h: PNA 5 μM; for Cell Prolif. (%) 10 μM 72 h: PNA 10 μM; for Cell Prolif (%) 2,5 μM 72 h: PNA 2,5 μM; for Cell Prolif. (%): Table 1, treated vs untreated control cells; for Kelly % cell prol.: Table 6
Outline: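 Kelly cells seeded at 5×10^3/well in OPTI-MEM with 4% FBS and 2 mM L-glutamine, in triplicate. PNA oligonucleotides at 1, 2.5, 5 or 10 μM. Viability by ATP-Lite luminescence at 48, 72, 96 and 168 h, as ratio to untreated controls.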

[4] = tested on: WiT49; test: Cellular proliferation assay (ATP-Lite), WiT49 cells; assay type: cell-based, human; details: Table 6
Experimental: as §1

[5] = tested on: MYCN gene; test: QT-PCR, MYCN mRNA in RH30 cells; assay type: cell-based, human; details: Table 6, PNA
Experimental: For the purpose of assessing the ability of the oligonucleotides of the present invention to modulate the expression of the target genes, their ability to reduce the quantity of messenger RNA was analyzed using the Real-Time PCR technique. For this purpose, use was made of 24-well plates, which were seeded with 5.0×10^4 cells with 0.3 ml of OPTI-MEM (GIBCO BRL) medium, 4% FBS and 2 mM L-glutammine (experiments in triplicate) per well. The cells were incubated for 24 hours at 37° C., in an atmosphere containing 5% CO2 to permit adherence to the base of the wells. Each oligonucleotide analyzed, except for the PNA oligonucleotides, was incubated beforehand with 2 μl of Lipofectamine 2000 (Invitrogen), with 0.3 mL of serum-free OPTI-MEM (GIBCO BRL) medium. For each well, the oligonucleotides were analyzed at the following final concentrations: • the antisense oligonucleotides siRNA and siRNA gapmer (i.e. the oligonucleotides containing one or more monomers of chemically modified nucleic acids at the 3' or 5' end, while in the central portion they have monomers of nucleic acids that have not been modified or have been modified at the level of the phosphodiester bond as a phosphorothioate bond) were used at 200 nM; • the antisense oligonucleotides containing phosphorothioate DNA monomers, the RNA antigene oligonucleotides (agRNA) and the oligonucleotides containing DNA monomers and LNA monomers were used at 10 μM; • the morpholino oligonucleotides were used at a concentration of 1 μM, and • the PNA oligonucleotides were administered at a concentration of 1 μM. The cells were treated with the oligonucleotides, adding FBS up to 4% 6 hours after administration of the same. After 24 hours the total RNA was extracted from each well and purified using the RNeasy Mini Kit (QIAGEN). Assays were performed on 8 cell lines obtained from 5 different human tumours which are correlated with MYCN expression, i.e.: • as a neuroblastoma model use was made of the cell lines Kelly, IMR-32 (where the MYCN gene is amplified and superexpressed) and SKNBE2c and LAN1 (where the MYCN gene is amplified and superexpressed and the p53 gene is mutated); • as a rabdomiosarcoma model use was made of the cell line RH30, where the MYCN gene is amplified and superexpressed; • as a Wilms' tumour model use was made of the cell line WiT49, where the MYCN gene is amplified and superexpressed; • as a retinoblastoma model use was made of the cell line Y79, where the MYCN gene is amplified and superexpressed; and • as a model of small cell lung cancer use was made of the cell line H69 where the MYCN gene is amplified and superexpressed. As a control, use was made of the same cell lines as listed above treated with sterile water instead of oligonucleotides. Each RNA sample was quantified (in duplicate) using a NanoDrop ND-1000 spectrophotometer (NanoDrop Technologies). The first strand of cDNA was produced using the cDNA Synthesis Kit for RT-PCR (Roche). For the cDNA synthesis reaction a total of 1 μg of RNA was used. For the real-time PCR, 10 ng of cDNA in a final volume of 20 μl was used with SYBR Green Master Mix 2× (Applied Biosystems) (3 identical experiments were conducted in triplicate). Two housekeeping genes were used as positive controls: GAPDH and beta-actin (ACTB). The conditions of the QT-PCR reaction were: 10 min at 95° C., 20 sec at 95° C., and 30 sec at 60° C., for 50 cycles. The PNAs having SEQ ID NO: 1-12 were also tested on different cell lines which overexpress MYCN (Kelly, SKNBE2c, RH30, […] 1 and H69). The results are shown in Table 6 and confirm the selectivity and specificity of the inhibition effect of the PNAs on the product of protein translation of the MYCN gene. Chimeric oligonucleotides comprising DNA monomers and LNA monomers and having the MYCN gene as their target were tested in vitro on alveolar rabdomyosarcoma cells (RH30). […]

| Substance | SKNBE2c % cell prol. [1] | WERI-Rb1 % cell prol. [2] | Cell Prolif (%) 1 μM 72 h [3] | Cell Prolif. (%) 5 μM 72 h [3] | Cell Prolif. (%) 10 μM 72 h [3] | Cell Prolif (%) 2,5 μM 72 h [3] | Cell Prolif. (%) [3] | Kelly % cell prol. [3] | WiT49 % cell prol. [4] | RH30 % mRNA [5] | (Kelly) Cell Prolif. % ([3]; Table 7, SEQ ID NO: 5 and guanine-group mutants) |
| --- | --- | --- | --- | --- | --- | --- | --- | --- | --- | --- | --- |
| SEQ ID NO: 1: PNA ATGCCGGGCATGATCT against MYCN; subject of patent EP 1618195, control sequence used for comparison (all peptide nucleic acid (PNA)) [reference compound] | 72% | 82% | 89% | 50% | 24% | 66% | 70% | 66% | 74% | 39% | – |
| SEQ ID NO: 2: PNA antigene oligonucleotide GGGTGGATGCGGGGGG directed against MYCN (PNA backbone, chemistry not fully specified) | 52% | 79% | 74% | 12% | 2% | 32% | 32% | 32% | 54% | 74% | – |
| SEQ ID NO: 3: PNA antigene oligonucleotide GATGCGGGGGGCTCCT directed against MYCN (PNA backbone, chemistry not fully specified) | 53% | 78% | 78% | 19% | 3% | 41% | 41% | 41% | 57% | 65% | – |
| SEQ ID NO: 4: PNA antigene oligonucleotide GTCGGCGGGAGGTAAG directed against MYCN (PNA backbone, chemistry not fully specified) | 59% | 79% | 78% | 21% | 3% | 48% | 48% | 48% | 60% | 57% | – |
| SEQ ID NO: 5: PNA antigene oligonucleotide GCTGGGTGGATGCGGG directed against MYCN (PNA backbone, chemistry not fully specified) | 64% | 80% | 79% | 27% | 5% | 53% | 53% | 53% | 63% | 56% | 53% |
| SEQ ID NO: 6: PNA antigene oligonucleotide TGGACGCGCTGGGTGG directed against MYCN (PNA backbone, chemistry not fully specified) | 57% | 80% | 82% | 35% | 13% | 59% | 54% | 54% | 65% | 56% | – |
| SEQ ID NO: 7: PNA antigene oligonucleotide CGCGCTGGGTGGATGC directed against MYCN (all peptide nucleic acid (PNA)) | 58% | 79% | 80% | 31% | 8% | 54% | 57% | 57% | 60% | 55% | – |
| SEQ ID NO: 8: PNA antigene oligonucleotide GTCTGGACGCGCTGGG directed against MYCN (all peptide nucleic acid (PNA)) | 56% | 78% | 80% | 32% | 11% | 57% | 59% | 59% | 62% | 58% | – |
| SEQ ID NO: 9: PNA antigene oligonucleotide CCCTGCAGTCGGCGGG directed against MYCN (all peptide nucleic acid (PNA)) | 64% | 79% | 86% | 42% | 20% | 64% | 64% | 60% | 68% | 50% | – |
| SEQ ID NO: 10: PNA antigene oligonucleotide CGGCCGCGGGCCGCCA directed against MYCN (PNA backbone, chemistry not fully specified) | 70% | 85% | – | – | – | – | 65% | 64% | 70% | 29% | – |
| SEQ ID NO: 11: PNA antigene oligonucleotide GGGAACTGTGTTGGAG directed against MYCN (PNA backbone, chemistry not fully specified) | 71% | 84% | – | – | – | – | 68% | 64% | 72% | 31% | – |
| SEQ ID NO: 12: PNA antigene oligonucleotide TGTCTGGACGCGCTGG directed against MYCN (all peptide nucleic acid (PNA)) | 71% | 84% | 84% | 40% | 16% | 60% | 69% | 65% | 73% | 32% | – |
